These results are taken from ChEMBL document CHEMBL3217511, “Structure-activity evaluation of new uracil-based non-nucleoside inhibitors of HIV reverse transcriptase” (Medchemcomm, 2013).

A value given as a limit tells only on which side of the number the result lay.

Assay [1] deals with Human immunodeficiency virus type 1 reverse transcriptase (Human immunodeficiency virus 1), Q72547 [K103N,Y181C]. Nature of the assay: Inhibition of HIV1 Reverse transcriptase p51/p66 K103N/Y181C mutant at 10 uM after 30 mins using alpha-[32P]dATP by liquid scintillation counting.
Assay [2] has as its system Human immunodeficiency virus 1. Nature of the assay: Inhibition of HIV1 Reverse transcriptase p51/p66 G190A mutant at 10 uM after 30 mins using alpha-[32P]dATP by liquid scintillation counting.
Assay [3] has as its system Human immunodeficiency virus type 1 reverse transcriptase (Human immunodeficiency virus 1), Q72547 [Y181C]. The assay can be described thus: Inhibition of HIV1 Reverse transcriptase p51/p66 Y181C mutant at 10 uM after 30 mins using alpha-[32P]dATP by liquid scintillation counting.
The test system of assay [4] is Human immunodeficiency virus type 1 reverse transcriptase (Human immunodeficiency virus 1), Q72547 [V106A]. Nature of the assay: Inhibition of HIV1 Reverse transcriptase p51/p66 V106A mutant at 10 uM after 30 mins using alpha-[32P]dATP by liquid scintillation counting.
In assay [5] the test system is Human immunodeficiency virus type 1 reverse transcriptase (Human immunodeficiency virus 1), Q72547 [K103N]. The assay can be described thus: Inhibition of HIV1 Reverse transcriptase p51/p66 K103N mutant at 10 uM after 30 mins using alpha-[32P]dATP by liquid scintillation counting.
The test system of assay [6] is Human immunodeficiency virus type 1 reverse transcriptase (Human immunodeficiency virus 1), Q72547 [L100I]. Nature of the assay: Inhibition of HIV1 Reverse transcriptase p51/p66 L100I mutant at 10 uM after 30 mins using alpha-[32P]dATP by liquid scintillation counting.
Assay [7] deals with Human immunodeficiency virus type 1 reverse transcriptase (Human immunodeficiency virus 1) (UniProt Q72547). Nature of the assay: Inhibition of wild-type HIV1 Reverse transcriptase p51/p66 at 10 uM after 30 mins using alpha-[32P]dATP by liquid scintillation counting.
Assay [8] in a line: Inhibition of HIV1 Reverse transcriptase p51/p66 G190A mutant after 30 mins using alpha-[32P]dATP by liquid scintillation counting. More on the design: species or system Human immunodeficiency virus 1.
The target of assay [9] is Human immunodeficiency virus type 1 reverse transcriptase (Human immunodeficiency virus 1, UniProt Q72547). The assay can be described thus: Inhibition of wild-type HIV1 Reverse transcriptase p51/p66 after 30 mins using alpha-[32P]dATP by liquid scintillation counting.
Assay [10] relates to Human immunodeficiency virus 1. Nature of the assay: Selectivity ratio of IC50 for HIV1 Reverse transcriptase p51/p66 K103N mutant to IC50 for wild-type HIV1 Reverse transcriptase p51/p66.
The subject of assay [11] is Human immunodeficiency virus 1. Nature of the assay: Selectivity ratio of IC50 for HIV1 Reverse transcriptase p51/p66 L100I mutant to IC50 for wild-type HIV1 Reverse transcriptase p51/p66.
Assay [12] concerns the target Human immunodeficiency virus type 1 reverse transcriptase (Human immunodeficiency virus 1, UniProt Q72547, K103N/Y181C). Nature of the assay: Inhibition of HIV1 Reverse transcriptase p51/p66 K103N/Y181C mutant after 30 mins using alpha-[32P]dATP by liquid scintillation counting.
Assay [13] addresses Human immunodeficiency virus type 1 reverse transcriptase (Human immunodeficiency virus 1, UniProt Q72547, Y181C). Nature of the assay: Inhibition of HIV1 Reverse transcriptase p51/p66 Y181C mutant after 30 mins using alpha-[32P]dATP by liquid scintillation counting.
The target of assay [14] is Human immunodeficiency virus type 1 reverse transcriptase (Human immunodeficiency virus 1, UniProt Q72547, V106A). Nature of the assay: Inhibition of HIV1 Reverse transcriptase p51/p66 V106A mutant after 30 mins using alpha-[32P]dATP by liquid scintillation counting.
The target of assay [15] is Human immunodeficiency virus type 1 reverse transcriptase (Human immunodeficiency virus 1, UniProt Q72547, K103N). Nature of the assay: Inhibition of HIV1 Reverse transcriptase p51/p66 K103N mutant after 30 mins using alpha-[32P]dATP by liquid scintillation counting.
Assay [16] deals with Human immunodeficiency virus type 1 reverse transcriptase (Human immunodeficiency virus 1, UniProt Q72547, L100I). The assay can be described thus: Inhibition of HIV1 Reverse transcriptase p51/p66 L100I mutant after 30 mins using alpha-[32P]dATP by liquid scintillation counting.

In general, inhibition refers to the percentage by which the read-out fell short of the control. Higher therefore signals a response far below the control. For orientation: IC50 means the concentration that gives 50% inhibition. As for `O=C(OC1C=CC(n2ccc(=O)n(Cc3ccccc3)c2=O)C1)c1ccccc1` (centres undefined), the inhibition was 15% in assay [1]; < 10% in assay [2]; 11% in [3]; 12% in assay [4]; 26% in [5]; 83% in [6]. Moreover, the inhibition in assay [7] came out at 45%. Further, the 50% inhibitory concentration (IC50) in assay [8] is > 50 µM.

`N#Cc1cccc(C(=O)OC2C=CC(n3ccc(=O)[nH]c3=O)C2)c1` (centres undefined): the IC50 in [9] was > 100 µM.

As for `O=C(OC1C=CC(n2ccc(=O)n(Cc3ccccc3)c2=O)C1)c1cc(Cl)cc(Cl)c1` (centres undefined), the inhibition in assay [1] is 25%; in assay [2], < 10%; in [3] it was 17%; in [4], 20%; in assay [5], 53%; in [6], 89%. This compound also showed an inhibition in assay [7] of 59%. Moreover, the Ratio IC50 in assay [10] worked out at 1.69; in assay [11], 0.25. Moreover, the IC50 was > 10 µM in [12]; > 100 µM in assay [8]; > 10 µM in assay [13]; > 10 µM in [14]; 8.8 µM in [15]; 1.29 µM in assay [16]. Besides, inhibition in assay [9] was half-maximal at 5.1 µM (IC50).

Turning to `O=C(Oc1ccccc1Cn1ccc(=O)[nH]c1=O)c1ccccc1`, the IC50 in assay [9] was > 100 µM.

On to `O=C(Oc1cccc(Cn2ccc(=O)[nH]c2=O)c1)c1ccccc1`, for which, in assay [9], the IC50 was > 100 µM.

Compound `O=C(Oc1cccc(Cn2ccc(=O)n(Cc3ccccc3)c2=O)c1)c1ccccc1` came in with an IC50 in assay [9] of 32.3 µM.

Consider `O=C(CCc1ccccc1)OC1C=CC(n2ccc(=O)n(Cc3ccccc3)c2=O)C1` (centres undefined), for which the half-maximal inhibitory concentration (IC50) in assay [9] was > 100 µM.

Consider `O=C(Oc1ccccc1Cn1ccc(=O)n(Cc2ccccc2)c1=O)c1ccccc1`, for which the IC50 in assay [9] was > 100 µM.

As for `O=C(OC1C=CC(n2ccc(=O)[nH]c2=O)C1)c1cc(Cl)cc(Cl)c1` (centres undefined), the concentration for half-maximal inhibition (IC50) in assay [9] was > 100 µM.

As to `Cc1cc(C)cc(C(=O)OC2C=CC(n3ccc(=O)n(Cc4ccccc4)c3=O)C2)c1` (centres undefined), the inhibition in [1] was 23%; in [2], < 10%; in assay [3], 24%; in assay [4] it was 14%; in [5] it was 37%; in [6], 77%. The compound further had an inhibition in assay [7] of 52%. The Ratio IC50 is 2.11 in assay [10] and 0.26 in assay [11]. For the same compound, the IC50 was > 20 µM in assay [12]; > 100 µM in assay [8]; > 20 µM in [13]; > 20 µM in [14]; 17.3 µM in [15]; 2.1 µM in assay [16]. In [9], this compound yielded an IC50 of 8.2 µM.

With `O=C(OC1C=CC(n2ccc(=O)n(C(=O)c3cc(Cl)cc(Cl)c3)c2=O)C1)c1cc(Cl)cc(Cl)c1` (centres undefined), the IC50 in [9] is > 100 µM.

Consider `O=C(Cc1ccccc1)OC1C=CC(n2ccc(=O)n(Cc3ccccc3)c2=O)C1` (centres undefined), for which the concentration for half-maximal inhibition (IC50) in [9] was 52 µM. This counts as double-digit micromolar.

The compound `O=C(Oc1cccc(Cn2ccc(=O)[nH]c2=O)c1)c1cc(Cl)cc(Cl)c1` registered a half-inhibitory concentration (IC50) in assay [9] of 42 µM.

Regarding `Cc1cc(C)cc(C(=O)OC2C=CC(n3ccc(=O)[nH]c3=O)C2)c1` (centres undefined), in assay [9], the IC50 is > 100 µM.

As for `Cc1ccnc2c1NC(=O)c1cccnc1N2C1CC1` [NEVIRAPINE], the inhibition was < 10% in [1]; < 10% in [2]; < 10% in assay [3]; < 10% in [4]; < 10% in assay [5]; 48% in assay [6]. In addition, the IC50 in assay [8] was > 2000 µM.

As for `O=C(Oc1ccc(Cn2ccc(=O)n(Cc3ccccc3)c2=O)cc1)c1ccccc1`, in assay [9], the IC50 is > 100 µM.

Take `O=C(CCc1ccccc1)OC1C=CC(n2ccc(=O)n(Cc3cc(F)cc(F)c3)c2=O)C1` (centres undefined): the half-maximal inhibitory concentration (IC50) in assay [9] is > 100 µM.

On to `O=C(Oc1ccc(Cn2ccc(=O)[nH]c2=O)cc1)c1ccccc1`, for which the IC50 in assay [9] is > 100 µM.

For `Cc1cc(C)cc(C(=O)OC2C=CC(n3ccc(=O)n(C(=O)c4cc(C)cc(C)c4)c3=O)C2)c1` (centres undefined), in [9], the IC50 is > 100 µM.

In the case of `N#Cc1cccc(C(=O)OC2C=CC(n3ccc(=O)n(Cc4ccccc4)c3=O)C2)c1` (centres undefined), the IC50 in [9] is > 100 µM.

Take `O=C(Cc1ccccc1)OC1C=CC(n2ccc(=O)n(Cc3cc(F)cc(F)c3)c2=O)C1` (centres undefined): in assay [9], the IC50 is > 100 µM.
